Experimental data taken from patent US6838453B2, “Antagonist derivatives of the vitronectin receptor” (Aventis Pharma S.A., priority 2000, dated 2005).

Target: human αvβ3 receptor (Homo sapiens, UniProt P05106+P06756)
Test: Kistrin/Vitronectin Receptor (αvβ3) ELISA test
Assay type: binding
Conditions: Kistrin-coated plates, co-incubated 3 hours at ambient temperature, 4B12-HRP antibody, OD 450 nm, read-out: K/VnR IC50
Protocol: Kistrin/Vitronectin Receptor (αvβ3) ELISA Test
96-well MaxiSorp planes are coated overnight at […] with 100 μl of Kistrin at 1 μg/ml (dilution in a coating buffer: carbonate 0.05 M/NaOH pH 9.6). The next day, the wells are emptied and the ligands (kistrin) are then fixed (fixing buffers: PBS containing 0.5% BSA (pH=7.4)) for 1 hour at ambient temperature with gentle agitation at 125 rpm. The wells are washed six times (washing buffer: PBS containing 0.05% of Tween 20 (pH 7.7) then the following are added per well and in this order: • 40 μl of incubation buffer • 10 μl of the dilution of the product to be tested (the products are diluted in a 50:50 mixture DMSO/Water) • 50 μl of human αvβ3 receptor (cf Pytella et al. Methods Enzymol. (1987) 144 (Dilution in incubation buffer, to be adapted according to the receptor batch and according to the ligand). The ligand, the αvβ3 receptor and the products to be studied are co-incubated for 3 hours at ambient temperature with gentle agitation at 125 rpm.
The wells are again washed six times, then incubated for 2 hours at ambient temperature with gentle agitation at 125 rpm, in the presence of 100 μl of anti-receptor antibody conjugated to a peroxidase (The 4B12-HRP antibody is diluted in an incubation buffer (50 mM TRIS pH 7.4; 0.5% BSA; 0.05% Tween 20; 1 mM MnCl2; 50 μM CaCl2; 50 μM MgCl2; 100 mM NaCl) The dilution is adapted according to the receptor batch.
The wells are then washed six times before measuring the ligand-receptor bond carried out using a peroxidase developer kit (TBM Microwell Peroxidase Substrate System Kirkegaard; Cat. Ref. 50-76-00).
This kit contains a bottle A of substrate (3,3′,5,5′-tetramethylebenzidine at 0.4 g/l) and a bottle B (H2O2 at 0.02% in a Citrate/Citric acid buffer). Extemporaneously, a volume of A is mixed with a volume of B, then the reaction mixture is distributed at a rate of 100 μl/well.
The enzymatic reaction develops between 6 and 10 minutes for Kistrin/αvβ3 then its evolution is stopped by the addition of 100 μl of 1M phosphoric acid. The optical density is determined at 450 nm.
Expression of the Results
The following curve is plotted: the bond percentage as a function of the logarithm of each concentration of the tested product.
For each product, the IC50 is determined according to the following formula: IC50=(B0+Bmin)/2 • B0=Maximum bond in the absence of any product • Bmin =Minimum bond in the presence of the highest concentration of the product.

Chain of human αvβ3 receptor (P06756 31-889 limits assumed): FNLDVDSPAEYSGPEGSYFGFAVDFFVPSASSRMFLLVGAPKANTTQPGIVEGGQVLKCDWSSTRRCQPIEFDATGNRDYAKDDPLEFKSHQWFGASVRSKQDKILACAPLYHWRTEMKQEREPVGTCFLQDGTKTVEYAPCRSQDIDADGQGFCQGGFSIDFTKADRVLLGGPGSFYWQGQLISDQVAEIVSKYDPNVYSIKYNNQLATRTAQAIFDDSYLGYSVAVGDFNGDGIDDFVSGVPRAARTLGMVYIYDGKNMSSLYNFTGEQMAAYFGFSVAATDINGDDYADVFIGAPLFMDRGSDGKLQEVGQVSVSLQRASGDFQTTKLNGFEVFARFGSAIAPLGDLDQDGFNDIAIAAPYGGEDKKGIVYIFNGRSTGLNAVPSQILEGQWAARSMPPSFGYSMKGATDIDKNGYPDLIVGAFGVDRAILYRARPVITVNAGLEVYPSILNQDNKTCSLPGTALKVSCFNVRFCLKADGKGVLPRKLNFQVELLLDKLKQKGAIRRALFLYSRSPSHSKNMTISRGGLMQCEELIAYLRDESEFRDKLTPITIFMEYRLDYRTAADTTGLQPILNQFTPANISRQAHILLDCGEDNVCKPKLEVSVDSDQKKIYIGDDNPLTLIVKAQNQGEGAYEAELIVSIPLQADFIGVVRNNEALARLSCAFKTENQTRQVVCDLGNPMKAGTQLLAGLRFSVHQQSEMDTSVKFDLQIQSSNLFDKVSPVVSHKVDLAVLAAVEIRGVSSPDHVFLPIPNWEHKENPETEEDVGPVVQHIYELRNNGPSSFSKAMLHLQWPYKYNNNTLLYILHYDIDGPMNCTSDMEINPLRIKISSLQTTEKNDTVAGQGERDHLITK
Chain of human αvβ3 receptor (P06756 891-1048 limits assumed): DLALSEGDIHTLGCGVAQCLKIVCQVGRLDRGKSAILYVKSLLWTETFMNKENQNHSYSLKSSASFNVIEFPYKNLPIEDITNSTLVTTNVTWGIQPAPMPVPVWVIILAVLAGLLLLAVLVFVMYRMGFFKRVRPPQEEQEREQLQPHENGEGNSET
Chain of human αvβ3 receptor (P05106 27-788): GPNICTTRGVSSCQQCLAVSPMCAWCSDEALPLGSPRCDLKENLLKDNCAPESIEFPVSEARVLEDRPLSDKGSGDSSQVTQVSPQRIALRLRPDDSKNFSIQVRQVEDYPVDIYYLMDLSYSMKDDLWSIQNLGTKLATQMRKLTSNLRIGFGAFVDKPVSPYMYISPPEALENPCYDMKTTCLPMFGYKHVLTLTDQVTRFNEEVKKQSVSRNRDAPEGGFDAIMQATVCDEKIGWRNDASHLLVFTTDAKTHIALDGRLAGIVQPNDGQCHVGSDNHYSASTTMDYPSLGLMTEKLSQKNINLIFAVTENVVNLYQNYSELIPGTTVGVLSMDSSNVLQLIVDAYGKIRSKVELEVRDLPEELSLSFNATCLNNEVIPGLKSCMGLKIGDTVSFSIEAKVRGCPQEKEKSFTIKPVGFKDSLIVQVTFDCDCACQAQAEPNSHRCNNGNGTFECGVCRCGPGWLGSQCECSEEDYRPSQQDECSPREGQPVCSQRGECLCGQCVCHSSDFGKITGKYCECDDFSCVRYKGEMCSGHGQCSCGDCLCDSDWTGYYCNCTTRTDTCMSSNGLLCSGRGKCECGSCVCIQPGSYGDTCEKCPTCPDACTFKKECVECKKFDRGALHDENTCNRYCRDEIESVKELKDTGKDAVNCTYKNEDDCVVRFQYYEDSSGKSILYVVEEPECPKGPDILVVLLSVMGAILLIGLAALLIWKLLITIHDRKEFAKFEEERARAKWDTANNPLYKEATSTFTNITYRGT

Row | SMILES | IC50 [nM]
1 | CN(c1ccccc1)S(=O)(=O)c1ccc2oc(N[C@@H](Cc3ccc(OCCCC(=O)NC4=NCCCN4)cc3)C(=O)O)nc2c1 [Example 31, N-[5-[(N-methylphenylamino)sulphonyl]-2-benzoxazolyl]-O-[4-oxo-4-[(1,4,5,6-tetrahydro-2-pyrimidinyl)amino]butyl]-L-tyrosine] | 5
2 | O=C(CCCOc1ccc(C[C@H](Nc2nc3ccc(Cl)cc3s2)C(=O)O)cc1)NC1=NCCCN1 [Example 32, N-(6-chloro-2-benzothiazolyl)-O-[4-oxo-4-[(1,4,5,6-tetrahydro-2-pyrimidinyl)amino]butyl]-L-tyrosine] | 10

Further lines, results first:

Row | IC50 [nM] | SMILES
3 | 7 | O=C(CCCOc1ccc(C[C@H](Nc2nc3cccc(Br)c3s2)C(=O)O)cc1)NC1=NCCCN1 [Example 33, N-(7-bromo-2-benzothiazolyl)-O-[4-oxo-4-[(1,4,5,6-tetrahydro-2-pyrimidinyl)amino]butyl]-L-tyrosine]
4 | 18 | O=C(CCCOc1ccc(C[C@H](Nc2nc3cc(Br)ccc3s2)C(=O)O)cc1)NC1=NCCCN1 [Example 34, N-(5-bromo-2-benzothiazolyl)-O-[4-oxo-4-[(1,4,5,6-tetrahydro-2-pyrimidinyl)amino]butyl]-L-tyrosine]
5 | 18 | O=C(CCCOc1ccc(C[C@H](Nc2nc3ccccc3[nH]2)C(=O)O)cc1)NC1=NCCCN1 [Example 35, N-(1H-benzimidazol-2-yl)-O-[4-oxo-4-[(1,4,5,6-tetrahydro-2-pyrimidinyl)amino]butyl]-L-tyrosine]
